Assay results taken from patent publication US7807384B2, “Low density lipoprotein binding proteins and their use in diagnosing and treating atherosclerosis” (Boston Heart Foundation, Inc., priority 1996, dated 2010).

Tests used:
LBP-1/LDL binding = target: T1, LBP-1/LDL binding (Homo sapiens, UniProt P04114); assay: ACE assay of LBP-1/LDL binding in the presence of inhibitors; set-up: species or system rabbit; settings: LDL 148 nM in gel; increasing inhibitor (polyglutamic acid 0-0.4 nM; BHF-1 0-10 nM)
T1 construct: the sizes of the recombinant proteins were determined to be 16.2 kDa for LBP-1; LDL was prepared from the plasma of normolipemic donors; 6-histidine tag (N); made in house; host or cells: E. coli DH10B, pPROEX-HT (LBP-1); LDL from human donor plasma
T1 sequence (P04114 28-4563): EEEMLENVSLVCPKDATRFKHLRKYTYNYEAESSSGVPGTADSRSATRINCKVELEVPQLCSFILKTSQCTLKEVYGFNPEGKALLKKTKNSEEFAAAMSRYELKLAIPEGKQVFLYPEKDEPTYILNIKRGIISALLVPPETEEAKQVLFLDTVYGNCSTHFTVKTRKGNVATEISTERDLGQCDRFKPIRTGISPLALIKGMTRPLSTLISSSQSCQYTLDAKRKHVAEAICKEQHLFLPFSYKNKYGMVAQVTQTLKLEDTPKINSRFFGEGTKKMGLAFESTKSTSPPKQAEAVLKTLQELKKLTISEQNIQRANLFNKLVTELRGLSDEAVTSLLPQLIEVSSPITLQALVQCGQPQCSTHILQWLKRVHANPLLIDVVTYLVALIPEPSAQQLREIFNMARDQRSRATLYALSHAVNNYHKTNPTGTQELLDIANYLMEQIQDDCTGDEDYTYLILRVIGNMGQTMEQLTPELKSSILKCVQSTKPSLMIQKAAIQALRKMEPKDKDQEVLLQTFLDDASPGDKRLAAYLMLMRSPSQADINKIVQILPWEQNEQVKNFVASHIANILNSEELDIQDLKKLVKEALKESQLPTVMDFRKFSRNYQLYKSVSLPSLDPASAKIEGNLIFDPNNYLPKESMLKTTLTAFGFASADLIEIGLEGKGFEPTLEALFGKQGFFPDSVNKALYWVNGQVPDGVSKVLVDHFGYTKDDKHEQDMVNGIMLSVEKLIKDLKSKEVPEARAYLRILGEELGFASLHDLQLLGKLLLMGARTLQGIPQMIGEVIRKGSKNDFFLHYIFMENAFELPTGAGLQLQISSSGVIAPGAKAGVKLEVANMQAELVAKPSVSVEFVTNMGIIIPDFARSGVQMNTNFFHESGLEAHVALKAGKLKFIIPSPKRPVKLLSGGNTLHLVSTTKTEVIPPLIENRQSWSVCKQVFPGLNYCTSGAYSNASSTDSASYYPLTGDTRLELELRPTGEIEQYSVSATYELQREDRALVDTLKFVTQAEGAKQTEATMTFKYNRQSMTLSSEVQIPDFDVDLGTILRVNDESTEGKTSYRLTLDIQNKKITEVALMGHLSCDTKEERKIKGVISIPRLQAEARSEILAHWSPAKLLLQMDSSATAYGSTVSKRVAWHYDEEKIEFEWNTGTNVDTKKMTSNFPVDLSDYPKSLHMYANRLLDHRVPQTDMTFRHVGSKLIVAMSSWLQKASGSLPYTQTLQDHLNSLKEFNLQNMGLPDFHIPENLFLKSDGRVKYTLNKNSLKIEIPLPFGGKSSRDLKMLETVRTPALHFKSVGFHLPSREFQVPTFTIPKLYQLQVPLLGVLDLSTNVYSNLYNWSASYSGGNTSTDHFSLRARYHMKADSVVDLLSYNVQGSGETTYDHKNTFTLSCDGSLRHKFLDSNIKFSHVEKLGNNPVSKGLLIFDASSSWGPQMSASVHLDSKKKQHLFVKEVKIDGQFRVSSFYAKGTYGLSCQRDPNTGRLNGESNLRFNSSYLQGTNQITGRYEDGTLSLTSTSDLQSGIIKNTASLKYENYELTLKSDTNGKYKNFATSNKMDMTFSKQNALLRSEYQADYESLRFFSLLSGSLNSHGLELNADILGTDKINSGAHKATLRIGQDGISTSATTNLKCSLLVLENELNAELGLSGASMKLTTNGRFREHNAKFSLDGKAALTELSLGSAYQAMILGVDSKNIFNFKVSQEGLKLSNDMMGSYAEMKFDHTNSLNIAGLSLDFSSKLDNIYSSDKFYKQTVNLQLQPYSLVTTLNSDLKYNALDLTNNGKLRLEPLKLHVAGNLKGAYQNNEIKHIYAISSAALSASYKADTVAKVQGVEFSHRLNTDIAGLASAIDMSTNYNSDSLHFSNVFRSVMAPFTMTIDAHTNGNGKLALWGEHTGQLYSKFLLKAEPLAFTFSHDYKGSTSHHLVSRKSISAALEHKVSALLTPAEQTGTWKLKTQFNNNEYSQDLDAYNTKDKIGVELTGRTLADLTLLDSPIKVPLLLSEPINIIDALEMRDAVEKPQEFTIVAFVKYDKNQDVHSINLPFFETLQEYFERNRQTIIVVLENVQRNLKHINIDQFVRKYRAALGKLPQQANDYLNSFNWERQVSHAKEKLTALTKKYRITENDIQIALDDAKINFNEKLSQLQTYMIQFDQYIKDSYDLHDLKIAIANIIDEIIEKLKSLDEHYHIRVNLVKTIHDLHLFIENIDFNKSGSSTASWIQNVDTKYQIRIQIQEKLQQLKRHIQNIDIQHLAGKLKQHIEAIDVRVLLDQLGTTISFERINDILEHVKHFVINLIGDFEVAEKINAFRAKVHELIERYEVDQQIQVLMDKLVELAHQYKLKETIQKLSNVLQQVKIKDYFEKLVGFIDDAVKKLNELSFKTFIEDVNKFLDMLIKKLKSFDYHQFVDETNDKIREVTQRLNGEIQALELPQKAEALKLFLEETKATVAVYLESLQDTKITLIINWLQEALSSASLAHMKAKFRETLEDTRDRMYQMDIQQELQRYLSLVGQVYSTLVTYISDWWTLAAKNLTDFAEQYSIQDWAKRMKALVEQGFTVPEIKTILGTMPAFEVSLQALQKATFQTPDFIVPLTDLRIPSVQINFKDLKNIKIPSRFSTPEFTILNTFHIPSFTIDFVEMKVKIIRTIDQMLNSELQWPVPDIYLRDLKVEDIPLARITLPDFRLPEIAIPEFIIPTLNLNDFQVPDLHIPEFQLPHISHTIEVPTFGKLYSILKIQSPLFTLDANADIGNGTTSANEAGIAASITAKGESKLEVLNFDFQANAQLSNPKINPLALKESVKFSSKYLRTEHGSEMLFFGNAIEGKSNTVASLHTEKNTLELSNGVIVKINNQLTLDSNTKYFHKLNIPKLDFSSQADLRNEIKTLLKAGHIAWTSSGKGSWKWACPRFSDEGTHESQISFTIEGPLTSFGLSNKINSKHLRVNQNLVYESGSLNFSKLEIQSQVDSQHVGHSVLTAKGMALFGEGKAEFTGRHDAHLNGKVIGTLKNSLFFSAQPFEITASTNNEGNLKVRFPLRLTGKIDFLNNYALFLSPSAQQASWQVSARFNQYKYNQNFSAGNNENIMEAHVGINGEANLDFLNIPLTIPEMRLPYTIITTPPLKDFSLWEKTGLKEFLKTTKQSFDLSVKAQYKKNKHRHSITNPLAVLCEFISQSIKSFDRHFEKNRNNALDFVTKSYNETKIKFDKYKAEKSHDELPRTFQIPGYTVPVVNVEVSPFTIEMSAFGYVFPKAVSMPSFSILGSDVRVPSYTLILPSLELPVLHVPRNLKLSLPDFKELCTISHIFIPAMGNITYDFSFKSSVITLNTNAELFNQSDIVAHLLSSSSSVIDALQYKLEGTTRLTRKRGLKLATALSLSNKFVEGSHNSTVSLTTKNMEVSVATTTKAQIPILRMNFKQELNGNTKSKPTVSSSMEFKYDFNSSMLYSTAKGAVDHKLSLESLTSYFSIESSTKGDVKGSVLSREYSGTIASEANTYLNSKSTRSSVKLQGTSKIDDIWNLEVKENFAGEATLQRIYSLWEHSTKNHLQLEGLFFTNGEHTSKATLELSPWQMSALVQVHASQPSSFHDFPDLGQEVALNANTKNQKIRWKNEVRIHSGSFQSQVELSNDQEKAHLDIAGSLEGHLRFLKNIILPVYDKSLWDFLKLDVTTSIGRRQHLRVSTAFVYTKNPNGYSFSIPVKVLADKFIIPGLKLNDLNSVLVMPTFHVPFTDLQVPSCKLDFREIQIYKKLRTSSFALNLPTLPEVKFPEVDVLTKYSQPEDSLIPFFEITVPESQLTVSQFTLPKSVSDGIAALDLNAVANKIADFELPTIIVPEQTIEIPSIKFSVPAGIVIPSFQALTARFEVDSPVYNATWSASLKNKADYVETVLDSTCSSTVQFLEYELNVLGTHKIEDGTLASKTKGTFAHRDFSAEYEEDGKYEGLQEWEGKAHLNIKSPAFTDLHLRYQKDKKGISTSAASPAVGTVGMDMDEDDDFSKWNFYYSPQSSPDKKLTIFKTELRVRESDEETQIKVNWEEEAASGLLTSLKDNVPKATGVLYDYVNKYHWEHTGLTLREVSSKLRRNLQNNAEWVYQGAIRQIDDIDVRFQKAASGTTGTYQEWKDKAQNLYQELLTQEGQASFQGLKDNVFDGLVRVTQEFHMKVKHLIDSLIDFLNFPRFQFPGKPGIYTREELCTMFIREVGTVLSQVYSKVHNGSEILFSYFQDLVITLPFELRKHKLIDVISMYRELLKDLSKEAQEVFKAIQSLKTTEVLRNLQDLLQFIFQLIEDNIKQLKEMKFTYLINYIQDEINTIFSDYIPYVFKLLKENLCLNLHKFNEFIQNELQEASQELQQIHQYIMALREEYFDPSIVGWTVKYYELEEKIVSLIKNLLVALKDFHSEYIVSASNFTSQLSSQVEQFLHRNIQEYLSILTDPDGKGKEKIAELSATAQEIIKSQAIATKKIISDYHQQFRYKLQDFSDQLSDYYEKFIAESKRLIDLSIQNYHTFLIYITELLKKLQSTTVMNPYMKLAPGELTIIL
Method: (§1) This example illustrates that binding between LBP-1 or LBP-2 and LDL is inhibited by polyglutamic acid or BHF-1. The ability of a third compound to inhibit binding between two proteins previously shown to interact was tested by a modification of the ACE assays described in Example 8. The third compound was added to the top or wells together with the radiolabeled protein.
(§2) Inhibition of LBP-1/LDL or LBP-2/LDL binding by polyglutamic acid (average MW about 7500, corresponding to about […]) was shown by casting a constant amount of LDL (148 nM) in all the rectangular lanes. A constant amount (1 μl) of ^125I-labeled LBP-1 or LBP-2 (0.003 nM-0.016 nM) was loaded in the wells at the top of the gel, together with increasing concentrations of polyglutamic acid (obtained from Sigma) (0-0.4 nM). The gel was electrophoresed at 70 volts for 2 hr, dried and placed on X-ray film, with intensifying screens, overnight at −70° C. before the film was developed to determine the retardation profile of LBP-1 and LBP-2.
Inhibition of LBP-1/LDL binding by BHF-1 was shown by casting a constant amount of LDL (148 nM) in all the rectangular lanes. A constant amount of ^125I-labeled LBP-1 (0.003 nM-0.016 nM) was loaded in the wells at the top of the gel, together with increasing concentrations of BHF-1 (0-10 nM), obtained as described in Example 15. […]

LBP-2/LDL binding = target: T2, LBP-2/LDL binding (Homo sapiens, UniProt P04114); assay: ACE assay of LBP-2/LDL binding in the presence of inhibitors; set-up: species or system rabbit; settings: LDL 148 nM in gel; polyglutamic acid 0-0.4 nM
T2 construct: LDL was prepared from the plasma of normolipemic donors; 6-histidine tag (N); made in house; host or cells: E. coli DH10B, pPROEX-HT (LBP-2); LDL from human donor plasma
T2 sequence (P04114 28-4563): as above
Method: as §1, §2

recombinant LBP-1 = target: T3, recombinant LBP-1 (Homo sapiens, UniProt P04114); assay: ELISA plate assay, binding of LDL to recombinant LBP-1; settings: ELISA format
T3 construct: the sizes of the recombinant proteins were determined to be 16.2 kDa for LBP-1; 6-histidine tag (N); made in house; host or cells: E. coli DH10B, pPROEX-HT (LBP-1); LDL from human donor plasma
T3 sequence (P04114 28-4563): as above
Method: (§3) In one example, the ELISA assay was carried out as follows: LDL was diluted in 50 mM Na2HCO3, pH 9.6/0.02% NaN3 and added to the wells of a 96-well plate (ImmunoWare 96-Well Reacti-Bind EIA Polystyrene Plates; Pierce (Rockford, Ill.)) to achieve a final concentration ranging from 0.1 to 1 μg/well. The plates were incubated for 6 hr at room temperature. At the end of the incubation period, the wells were washed 3 times with Tris-buffered saline, pH 7.4 (TBS), and blocked overnight with 200 μl of 1% bovine serum albumin (BSA) in TBS/0.02% NaN3 (Sigma; St. Louis Mo.) at room temperature. The wells were then incubated with 200 μl of LBP protein (5-10 μg/well) in TBS and varying concentrations of the test compound. Plates were incubated for 1 hr at room temperature. The wells were then washed three times with TBS and blocked for 2 hr with 200 μl of 1% BSA in TBS/0.02% NaN3 at room temperature. At the end of the incubation period, the wells were washed 3 times with TBS and a 1:1000 dilution (in TBS/0.05% Tween 20) of the appropriate guinea pig anti-LBP protein polyclonal antibody was added to the wells and incubated for 1 hr at room temperature. […] The absorbance was determined at 405 nm using an ELISA plate reader. The test compound's effectiveness in blocking the binding of LDL to the recombinant protein was assessed by comparing the absorbance values of control and treated groups. […]

recombinant LBP-2 = assay: ELISA plate assay, binding of LDL to recombinant LBP-2; settings: ELISA format
Method: as §3

[1] = tested on: ballooned deendothelialized rabbit aorta; assay: Radiolabeled LDL accumulation in ballooned deendothelialized abdominal aorta after active immunization; assay type: in vivo; settings: immunized with RIBI adjuvant; corrected for dosage and percent reendothelialization; 24 hr after 125I-LDL
Method: Immunity was induced in male New Zealand White rabbits (Hazelton Research Products, Denver, Pa.) as follows: A mixture of purified human recombinant LBP-2 or BHF-1 peptide (1 ml; 1 mg) and RIBI adjuvant (RIBI ImmunoChem Research, Inc., Hamilton, Mont.) was injected subcutaneously at 2-5 sites along the dorsal thoracic and abdominal regions of the rabbits. Blood was collected by venipuncture on days 1 (preimmune bleeding), 35, 63, and 91. Booster injections were administered on days 28 (500 μg; SC), 56 (250 μg; SC), and 84 (125 μg; SC).
On day 93, the abdominal aorta of immunized and control rabbits was deendothelialized using a Fogarty number 4 embolectomy catheter (Chang et al., Arteriosclerosis and Thrombosis 12:1088-1098 (1992)). Four weeks after ballooning, rabbits received a bolus injection of ^125I-labeled LDL (1 ml; i.v.). […] Blood samples were centrifuged for 30 min at 2000 rpm ([…]) and total activity present in the serum was determined using a Gamma counter. Total TCA precipitable counts were determined by addition of TCA to the serum to a final concentration of 10% followed by incubation for 10 min at 4° C. Serum samples were then centrifuged (2000 rpm; 30 min; […]) and total activity present in the supernate was determined. TCA precipitable counts were calculated by subtraction: total soluble counts minus counts present in the supernate after TCA precipitation. […]

[2] = tested on: LDL receptor (LDLR) knockout mice; assay: Aortic cholesterol content in BHF-1-immunized LDLR knockout mice; assay type: in vivo, mouse; settings: 30 weeks of age, modified Western Type diet, P>0.037 as printed
Method: An immunization experiment was performed with the BHF-1 peptide. LDL receptor (LDLR) knockout mice (B6,129S-Ldlr^tmlHer, Jackson Laboratories, Bar Harbor, Me.) were injected with the BHF-1 peptide (see Example 15 for methods of synthesizing the BHF-1 peptide) together with an RIBI adjuvant (RIBI ImmunoChem Research, Inc., Hamilton, Mont.). LDLR knockout mice are hyperlipidemic and thus a model for human atherosclerosis. LDLR knockout mice have high levels of plasma cholesterol and develop naturally-occurring atherosclerotic-like lesions.
Four week old LDLR knockout mice were ear tagged, randomly assigned to different cages and weighed. Body weights were subsequently determined weekly. Animals were allowed to habituate for one week prior to experimentation. […]
Mice in the experimental group received subcutaneous injections (9.99 μg/g body weight; 200 μl final volume) of the BHF-1.20.L peptide daily for 2 weeks, from 5 to 7 weeks of age, prior to the initial injection with the peptide and adjuvant. […] Titer was defined as the maximum dilution of serum that yielded a change in absorbance equivalent to 2× that of control serum (60 min; 37° C.). […]
At 30 weeks of age, the mice were sacrificed and aorta were removed as described in Example 22. Aortic atherosclerosis was measured by the cholesterol extraction method described in Example 22, whereby cholesterol is determined as a unit weight of artery.

[3] = Body weight and serum lipids of BHF-1-immunized LDLR knockout mice; assay type: in vivo, mouse
From the text: Four week old LDLR knockout mice were ear tagged, randomly assigned to different cages and weighed. Body weights were subsequently determined weekly. Animals were allowed to habituate for one week prior to experimentation. Normal rodent chow was provided ad libitum and animals were maintained in a 12:12 light:dark cycle. Animals were divided into experimental and control groups, as follows: (1) experimental, 16 mice were immunized with the BHF-1.20.L peptide; (2) control, 8 mice were immunized against bovine serum albumin.
Blood samples were analyzed for total cholesterol, HDL cholesterol, and triglyceride concentration, using commercially available total cholesterol and triglycerides assay kits (Sigma, St. Louis Mo.) (ELISA). HDL concentration was determined after Apo B containing lipoproteins were precipitated using heparin/MnCl2.
When fed a normal rodent chow, total serum cholesterol concentration in LDLR knockout mice remains relatively low. A high fat diet, on the other hand, results in an increase in total serum cholesterol concentration in these mice. The animals were thus switched at 16 weeks of age to a modified “Western Type” diet (0.1% cholesterol content) (Harland Teklad, Madison, Wis.) and fed ad libitum. This diet was expected to increase the total serum cholesterol concentration to a range of 600-800 mg/dl, thereby increasing the rate of lesion formation. […]

| Inhibition of binding between LBP-1 and LDL (LBP-1/LDL binding) | Inhibition of binding between LBP-2 and LDL (LBP-2/LDL binding) | Binding of LDL to recombinant LBP-1 (recombinant LBP-1) | Binding of LDL to recombinant LBP-2 (recombinant LBP-2) | Substance | Accumulation of radiolabeled LDL in ballooned abdominal aorta versus nonimmune-ballooned rabbits [1] | Less aortic cholesterol content as compared to control mice [2] [%] | Effect of immunization on body weight [3] |
| --- | --- | --- | --- | --- | --- | --- | --- |
| inhibited binding | inhibited binding |  |  | polyglutamic acid [reference compound] |  |  |  |
| inhibited binding |  | reduce the binding | reduce the binding | val-asp-val-asp-glu-tyr-asp-glu-asn-lys-phe-val-asp-glu-glu-asp-gly-gly-asp-gly (VDVDEYDENKFVDEEDGGDG; listed as Homo sapiens) [BHF-1] | lower accumulation | 24 | no effect |
